From ChEMBL document CHEMBL1150041, “Arylpiperazide derivatives of phenylpiperazines as a new class of potent and selective 5-HT1B receptor antagonists” (Bioorg Med Chem Lett, 1997)

What was measured:
[1] = biological target: 5-hydroxytryptamine receptor 1D (Homo sapiens, UniProt P28221); test: Affinity for 5-hydroxytryptamine 1D receptor subtype
[2] = biological target: T1, 5-hydroxytryptamine receptor 1A (Homo sapiens, UniProt P08908); test: Affinity for 5-hydroxytryptamine 1A receptor subtype
T1 sequence (P08908 whole entry): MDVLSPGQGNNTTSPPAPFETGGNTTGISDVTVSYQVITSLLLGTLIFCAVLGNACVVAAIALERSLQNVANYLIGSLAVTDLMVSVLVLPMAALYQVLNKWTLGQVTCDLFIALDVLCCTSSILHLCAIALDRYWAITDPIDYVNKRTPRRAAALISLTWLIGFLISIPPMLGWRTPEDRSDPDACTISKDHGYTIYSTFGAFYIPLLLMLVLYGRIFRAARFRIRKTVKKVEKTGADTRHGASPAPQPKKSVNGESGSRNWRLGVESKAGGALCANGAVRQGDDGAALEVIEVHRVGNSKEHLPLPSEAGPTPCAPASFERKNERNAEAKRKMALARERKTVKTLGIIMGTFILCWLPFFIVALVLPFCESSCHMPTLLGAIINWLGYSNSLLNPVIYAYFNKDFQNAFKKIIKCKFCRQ

[3] = biological target: T2, 5-hydroxytryptamine receptor 1B (Homo sapiens, UniProt P28222); test: Affinity for 5-hydroxytryptamine 1B receptor subtype
T2 sequence (P28222 whole entry): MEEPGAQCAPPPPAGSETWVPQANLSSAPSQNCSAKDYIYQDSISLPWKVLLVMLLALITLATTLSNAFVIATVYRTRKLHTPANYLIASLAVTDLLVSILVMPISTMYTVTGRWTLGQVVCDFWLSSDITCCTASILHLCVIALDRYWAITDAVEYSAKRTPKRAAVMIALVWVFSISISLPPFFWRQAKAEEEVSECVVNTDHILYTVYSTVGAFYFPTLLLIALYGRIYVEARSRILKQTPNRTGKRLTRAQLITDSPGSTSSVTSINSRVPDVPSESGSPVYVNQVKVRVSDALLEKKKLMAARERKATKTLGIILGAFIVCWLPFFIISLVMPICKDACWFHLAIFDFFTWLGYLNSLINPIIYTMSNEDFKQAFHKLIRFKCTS

[4] = biological target: T2, 5-hydroxytryptamine receptor 1B; test: The compound was evaluated for antagonist potency at human cloned 5-hydroxytryptamine 1B receptor
[5] = biological target: T2, 5-hydroxytryptamine receptor 1B; test: The compound was evaluated for intrinsic activity against human cloned 5-hydroxytryptamine 1B receptor
[6] = biological target: T2, 5-hydroxytryptamine receptor 1B; test: The compound was evaluated for intrinsic activity against human cloned 5-hydroxytryptamine 1B receptor; Slient antagonist; type: functional; conditions: filed as antagonist
[7] = biological target: T2, 5-hydroxytryptamine receptor 1B; test: The compound was evaluated for intrinsic activity against human cloned 5-hydroxytryptamine 1B receptor; silent antagonist; type: functional

Sequence of 5-hydroxytryptamine receptor 1D (P28221 whole entry): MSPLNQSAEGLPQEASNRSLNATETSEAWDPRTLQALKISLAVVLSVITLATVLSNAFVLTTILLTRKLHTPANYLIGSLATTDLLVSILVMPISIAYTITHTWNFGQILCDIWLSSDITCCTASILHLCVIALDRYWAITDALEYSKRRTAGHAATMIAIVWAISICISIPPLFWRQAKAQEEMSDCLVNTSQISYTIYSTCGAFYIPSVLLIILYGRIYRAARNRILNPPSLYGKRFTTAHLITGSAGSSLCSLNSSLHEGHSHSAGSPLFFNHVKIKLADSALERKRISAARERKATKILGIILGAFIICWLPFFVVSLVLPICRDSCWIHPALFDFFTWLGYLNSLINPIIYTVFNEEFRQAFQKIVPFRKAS

Ki [1]	Ki [2]	Ki [3]	KB [4]	Kb [5]	Kb [7]	SMILES	Intrinsic activity [6]
88 nM	571 nM	1.8 nM	1.9 nM			COc1ccc(NC(=O)N2CCN(c3ccc(C)cc3C)CC2)cc1N1CCN(C)CC1	
340 nM	450 nM	18 nM		27 nM		COc1ccc(NC(=O)N2CCN(c3ccccc3)CC2)cc1N1CCN(C)CC1	
26 nM	257 nM	0.5 nM		39 nM		COc1ccc(NC(=O)N2CCN(c3cccc4c3CCCC4)CC2)cc1N1CCN(C)CC1	
37 nM	393 nM	1.3 nM	10 nM			COc1ccc(NC(=O)N2CCN(c3c(C)cccc3C)CC2)cc1N1CCN(C)CC1	
90 nM				16 nM		COc1ccc(NC(=O)N2CCN(c3ccccc3OC)CC2)cc1N1CCN(C)CC1	
70 nM	79 nM	8 nM				COc1cccc(N2CCN(C(=O)Nc3ccc(OC)c(N4CCN(C)CC4)c3)CC2)c1	
	390 nM				12 nM	COc1ccc(NC(=O)N2CCN(c3ccccc3C)CC2)cc1N1CCN(C)CC1	
				12 nM		COc1ccc(N2CCN(C(=O)Nc3ccc(OC)c(N4CCN(C)CC4)c3)CC2)cc1	

Further lines, the compound ahead of its results:

SMILES	Ki [1]	Ki [2]	Ki [3]	KB [4]	Kb [5]	Kb [7]	Intrinsic activity [6]
Cc1ccccc1N1CCN(C(=O)Oc2ccc(Cl)c(N3CCN(C)CC3)c2)CC1	3.6 nM	> 1000 nM	150 nM				Antagonist
Cc1ccccc1N1CCN(C(=O)COc2ccc(Cl)c(N3CCN(C)CC3)c2)CC1	240 nM	> 1000 nM	11 nM			38 nM	
COc1ccc(NCC(=O)N2CCN(c3ccccc3C)CC2)cc1N1CCN(C)CC1	420 nM		40 nM			195 nM	
COc1ccc(NC(=O)c2ccc(-c3ccc(-c4noc(C)n4)cc3C)cc2)cc1N1CCN(C)CC1 [GR-127935]		72 nM	0.14 nM				
Cc1nc(-c2ccc(-c3ccc(C(=O)N4CCc5cc6c(cc54)C4(CCN(C)CC4)CO6)cc3)c(C)c2)no1 [SB-224289]		> 1000 nM					
